The test system of the assay is CD2F1 mice, L1210 leukemia ip, survival T/C. As to the kind of experiment: NCI In Vivo Anticancer Drug Screen. Data for tumor model L1210 Leukemia (intraperitoneal) in CD2F1 (CDF1) mice. The note with it: higher = longer survival. The method, boiled down:
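Tumor-bearing mice (transplanted tumor) were split into treated and vehicle control groups, and the measured endpoint of each treated group was divided by that of its vehicle controls.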

The mark [1] stands for this setting: endpoint: mean survival time, dose: 100.0 mg/kg/injection, schedule: Q01DX001 (ip), vehicle: saline with Tween-80.
Setting [2] is: endpoint: mean survival time, dose: 200.0 mg/kg/injection, schedule: Q01DX001 (ip), vehicle: saline with Tween-80.
[3] abbreviates: endpoint: mean survival time, dose: 400.0 mg/kg/injection, schedule: Q01DX001 (ip), vehicle: saline with Tween-80.

Toxic doses and inconclusive results are not listed.

As to `C[n+]1ccc(Nc2ccc(NC(=O)c3ccc(Nc4cc[n+](C)c5ccc(N)cc45)cc3)cc2)cc1`, the T/C is, setting by setting: (endpoint: mean survival time, dose: 2.0 mg/kg/injection, schedule: Q01DX009 (ip), vehicle: water) 313 % of control; (endpoint: mean survival time, dose: 4.0 mg/kg/injection, schedule: Q01DX009 (ip), vehicle: water) 341 % of control; (endpoint: median survival time, dose: 0.25 mg/kg/injection, schedule: Q03HX008 (ip), vehicle: water) 100 % of control; (endpoint: median survival time, dose: 0.25 mg/kg/injection, schedule: Q03HX016 (ip), vehicle: water) 102 % of control; (endpoint: median survival time, dose: 0.25 mg/kg/injection, schedule: Q03HX024 (ip), vehicle: water) 110 % of control; (endpoint: median survival time, dose: 0.5 mg/kg/injection, schedule: Q01DX005 (ip), vehicle: water) 120 % of control. Also, the T/C was 123 % of control (endpoint: median survival time, dose: 0.5 mg/kg/injection, schedule: Q01DX009 (ip), vehicle: water); 96 % of control (endpoint: median survival time, dose: 0.5 mg/kg/injection, schedule: Q01DX009 (sc), vehicle: water); 113 % of control (endpoint: median survival time, dose: 0.5 mg/kg/injection, schedule: Q03HX008 (ip), vehicle: water); 109 % of control (endpoint: median survival time, dose: 0.5 mg/kg/injection, schedule: Q03HX016 (ip), vehicle: water); 101 % of control (endpoint: median survival time, dose: 1.0 mg/kg/injection, schedule: Q01DX009 (sc), vehicle: water); 158 % of control (endpoint: median survival time, dose: 1.0 mg/kg/injection, schedule: Q03HX016 (ip), vehicle: water). The T/C reads like this: (endpoint: median survival time, dose: 1.0 mg/kg/injection, schedule: Q03HX024 (ip), vehicle: water) 180 % of control; (endpoint: median survival time, dose: 2.0 mg/kg/injection, schedule: Q01DX001 (ip), vehicle: water) 103 % of control; (endpoint: median survival time, dose: 2.0 mg/kg/injection, schedule: Q01DX001 (sc), vehicle: water) 97 % of control; (endpoint: median survival time, dose: 2.0 mg/kg/injection, schedule: Q01DX005 (ip), vehicle: water) 164 % of control; (endpoint: median survival time, dose: 2.0 mg/kg/injection, schedule: Q01DX009 (ip), vehicle: water) 274 % of control; (endpoint: median survival time, dose: 2.0 mg/kg/injection, schedule: Q01DX009 (oral), vehicle: water) 100 % of control. For the same compound, the T/C runs as follows: (endpoint: median survival time, dose: 2.0 mg/kg/injection, schedule: Q01DX009 (sc), vehicle: water) 157 % of control; (endpoint: median survival time, dose: 2.0 mg/kg/injection, schedule: Q03HX008 (ip), vehicle: water) 157 % of control; (endpoint: median survival time, dose: 2.0 mg/kg/injection, schedule: Q03HX016 (ip), vehicle: water) 185 % of control; (endpoint: median survival time, dose: 2.0 mg/kg/injection, schedule: Q03HX024 (ip), vehicle: water) 256 % of control; (endpoint: median survival time, dose: 2.0 mg/kg/injection, schedule: Q04DX003 (ip), vehicle: water) 113 % of control; (endpoint: median survival time, dose: 4.0 mg/kg/injection, schedule: Q01DX001 (ip), vehicle: water) 114 % of control. Moreover, the T/C reads like this: (endpoint: median survival time, dose: 4.0 mg/kg/injection, schedule: Q01DX001 (sc), vehicle: water) 100 % of control; (endpoint: median survival time, dose: 4.0 mg/kg/injection, schedule: Q01DX005 (ip), vehicle: water) 252 % of control; (endpoint: median survival time, dose: 4.0 mg/kg/injection, schedule: Q01DX009 (ip), vehicle: water) 373 % of control; (endpoint: median survival time, dose: 4.0 mg/kg/injection, schedule: Q01DX009 (oral), vehicle: water) 97 % of control; (endpoint: median survival time, dose: 4.0 mg/kg/injection, schedule: Q01DX009 (sc), vehicle: water) 241 % of control; (endpoint: median survival time, dose: 4.0 mg/kg/injection, schedule: Q03HX008 (ip), vehicle: water) 175 % of control. For the same compound, the T/C is, setting by setting: (endpoint: median survival time, dose: 4.0 mg/kg/injection, schedule: Q03HX016 (ip), vehicle: water) 212 % of control; (endpoint: median survival time, dose: 4.0 mg/kg/injection, schedule: Q03HX024 (ip), vehicle: water) 321 % of control; (endpoint: median survival time, dose: 4.0 mg/kg/injection, schedule: Q08DX002 (ip), vehicle: water) 164 % of control; (endpoint: median survival time, dose: 8.0 mg/kg/injection, schedule: Q01DX001 (oral), vehicle: water) 92 % of control; (endpoint: median survival time, dose: 8.0 mg/kg/injection, schedule: Q01DX001 (sc), vehicle: water) 105 % of control; (endpoint: median survival time, dose: 8.0 mg/kg/injection, schedule: Q01DX009 (ip), vehicle: water) 332 % of control. For the same compound, the T/C (endpoint: median survival time, dose: 8.0 mg/kg/injection, schedule: Q01DX009 (oral), vehicle: water) is 98 % of control; the T/C (endpoint: median survival time, dose: 8.0 mg/kg/injection, schedule: Q01DX009 (sc), vehicle: water) was 307 % of control; the T/C (endpoint: median survival time, dose: 8.0 mg/kg/injection, schedule: Q04DX003 (ip), vehicle: water) was 157 % of control; the T/C (endpoint: median survival time, dose: 16.0 mg/kg/injection, schedule: Q01DX001 (oral), vehicle: water) was 98 % of control; the T/C (endpoint: median survival time, dose: 16.0 mg/kg/injection, schedule: Q01DX001 (sc), vehicle: water) was 121 % of control; the T/C (endpoint: median survival time, dose: 16.0 mg/kg/injection, schedule: Q01DX009 (oral), vehicle: water) was 100 % of control. The T/C runs as follows: (endpoint: median survival time, dose: 16.0 mg/kg/injection, schedule: Q01DX009 (sc), vehicle: water) 120 % of control; (endpoint: median survival time, dose: 32.0 mg/kg/injection, schedule: Q01DX001 (oral), vehicle: water) 96 % of control; (endpoint: median survival time, dose: 32.0 mg/kg/injection, schedule: Q01DX009 (oral), vehicle: water) 98 % of control; (endpoint: median survival time, dose: 64.0 mg/kg/injection, schedule: Q01DX001 (oral), vehicle: water) 100 % of control; (endpoint: median survival time, dose: 64.0 mg/kg/injection, schedule: Q01DX001 (sc), vehicle: water) 208 % of control; (endpoint: median survival time, dose: 64.0 mg/kg/injection, schedule: Q01DX009 (oral), vehicle: water) 100 % of control. Moreover, the T/C by setting is: (endpoint: median survival time, dose: 128.0 mg/kg/injection, schedule: Q01DX001 (oral), vehicle: water) 102 % of control; (endpoint: median survival time, dose: 256.0 mg/kg/injection, schedule: Q01DX001 (oral), vehicle: water) 92 % of control.

For `O=C1NC(=O)C(C2CC2)(C2CC2)N1`, the T/C (endpoint: mean survival time, dose: 100.0 mg/kg/injection, schedule: Q01DX009 (ip), vehicle: saline with Tween-80) was 95 % of control; the T/C (endpoint: mean survival time, dose: 200.0 mg/kg/injection, schedule: Q01DX009 (ip), vehicle: saline with Tween-80) was 94 % of control; the T/C (endpoint: mean survival time, dose: 400.0 mg/kg/injection, schedule: Q01DX009 (ip), vehicle: saline with Tween-80) is 96 % of control.

As to `Cc1cn(C2CC(O)C(CO)O2)c(=O)nc1NC1CC1` (configuration not stated), the T/C is 102 % of control (endpoint: median survival time, dose: 12.5 mg/kg/injection, schedule: Q01DX005 (ip), vehicle: water); 102 % of control (endpoint: median survival time, dose: 25.0 mg/kg/injection, schedule: Q01DX005 (ip), vehicle: water); 104 % of control (endpoint: median survival time, dose: 50.0 mg/kg/injection, schedule: Q01DX005 (ip), vehicle: water); 103 % of control (endpoint: median survival time, dose: 100.0 mg/kg/injection, schedule: Q01DX005 (ip), vehicle: water); 102 % of control (endpoint: median survival time, dose: 200.0 mg/kg/injection, schedule: Q01DX005 (ip), vehicle: water).

For the compound `C=C=CCCCCOC1CCCCO1` (configuration not stated), the T/C under setting [1] was 89 % of control, the T/C under setting [2] is 89 % of control and the T/C under setting [3] was 89 % of control.

As for `CC(=O)Nc1ccc(S(=O)(=O)CBr)cc1`, the T/C reads like this: (endpoint: mean survival time, dose: 100.0 mg/kg/injection, schedule: Q01DX001 (ip), vehicle: saline) 102 % of control; (endpoint: mean survival time, dose: 200.0 mg/kg/injection, schedule: Q01DX001 (ip), vehicle: saline) 97 % of control; (endpoint: mean survival time, dose: 400.0 mg/kg/injection, schedule: Q01DX001 (ip), vehicle: saline) 96 % of control.

Regarding `CC(C)C(NC1=NCCO1)c1ccccc1` (configuration not stated), the T/C (endpoint: mean survival time, dose: 12.5 mg/kg/injection, schedule: Q04DX003 (ip), vehicle: saline with Tween-80) is 106 % of control; the T/C (endpoint: mean survival time, dose: 25.0 mg/kg/injection, schedule: Q04DX003 (ip), vehicle: saline with Tween-80) is 98 % of control; the T/C (endpoint: mean survival time, dose: 50.0 mg/kg/injection, schedule: Q04DX003 (ip), vehicle: saline with Tween-80) is 104 % of control.

With `CC1C[C@@H](O)C(NC(=O)N(CCCl)N=O)[C@@H](O)C1` (some centres not stated), the T/C was 191 % of control (endpoint: mean survival time, dose: 6.0 mg/kg/injection, schedule: Q01DX001 (ip), vehicle: saline); 367 % of control (endpoint: mean survival time, dose: 9.0 mg/kg/injection, schedule: Q01DX001 (ip), vehicle: saline); 297 % of control (endpoint: mean survival time, dose: 13.0 mg/kg/injection, schedule: Q01DX001 (ip), vehicle: saline); 500 % of control (endpoint: mean survival time, dose: 20.0 mg/kg/injection, schedule: Q01DX001 (ip), vehicle: saline); 298 % of control (endpoint: mean survival time, dose: 30.0 mg/kg/injection, schedule: Q01DX001 (ip), vehicle: saline).

Turning to `Cc1cc(=O)[nH]c(=S)[nH]1`, the T/C is 98 % of control under setting [1]; 97 % of control (endpoint: mean survival time, dose: 100.0 mg/kg/injection, schedule: Q04DX002 (ip), vehicle: saline with Tween-80); 95 % of control under setting [2]; 97 % of control (endpoint: mean survival time, dose: 200.0 mg/kg/injection, schedule: Q04DX002 (ip), vehicle: saline with Tween-80); 88 % of control under setting [3].

Values taken from PubChem BioAssay AID256 (DTP/NCI, 2004).
